Inhibition data for three compounds are collected here from patent publication US7262220B2, “Urea- and urethane-substituted acylureas, process for their preparation and their use” (Sanofi-Aventis Deutschland GmbH, priority 2002, dated 2007).

Read-outs that look alike come from different tables or passages of the source.

The target of the assay is T1, human glycogen phosphorylase a (Homo sapiens, UniProt P06737).
T1 sequence (P06737 1-847): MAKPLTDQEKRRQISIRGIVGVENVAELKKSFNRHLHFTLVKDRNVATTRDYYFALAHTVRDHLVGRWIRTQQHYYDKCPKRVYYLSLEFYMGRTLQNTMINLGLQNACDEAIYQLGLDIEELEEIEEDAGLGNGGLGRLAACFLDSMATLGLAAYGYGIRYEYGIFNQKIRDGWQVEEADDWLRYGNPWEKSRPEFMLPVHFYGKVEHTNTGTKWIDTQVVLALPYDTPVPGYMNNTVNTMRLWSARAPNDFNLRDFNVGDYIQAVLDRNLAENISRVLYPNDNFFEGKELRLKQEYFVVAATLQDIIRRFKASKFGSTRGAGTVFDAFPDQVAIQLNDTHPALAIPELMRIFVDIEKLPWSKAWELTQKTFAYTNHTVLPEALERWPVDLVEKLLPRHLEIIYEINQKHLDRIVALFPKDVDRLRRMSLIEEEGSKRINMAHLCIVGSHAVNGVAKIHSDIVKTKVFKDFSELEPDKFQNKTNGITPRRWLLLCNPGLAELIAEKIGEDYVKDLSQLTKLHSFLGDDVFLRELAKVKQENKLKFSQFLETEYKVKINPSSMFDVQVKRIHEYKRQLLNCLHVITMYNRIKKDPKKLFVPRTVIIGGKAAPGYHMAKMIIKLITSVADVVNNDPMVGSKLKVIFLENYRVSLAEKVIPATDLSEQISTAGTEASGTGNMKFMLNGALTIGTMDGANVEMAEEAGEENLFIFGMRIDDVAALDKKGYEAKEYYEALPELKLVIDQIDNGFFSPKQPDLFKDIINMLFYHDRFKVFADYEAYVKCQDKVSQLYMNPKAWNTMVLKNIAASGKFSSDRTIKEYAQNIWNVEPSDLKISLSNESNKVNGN
The assay is described as follows: Glycogen phosphorylase a activity assay. The assay is classed as biochemical. The settings on record: read-out: % inhibition at 10 μM. Here is the method: Glycogen Phosphorylase a Activity Assay
The effect of compounds on the activity of the active form of glycogen phosphorylase (GPa) was measured in the reverse direction by following the synthesis of glycogen from glucose 1-phosphate by determining the liberation of inorganic phosphate. All the reactions were carried out as duplicate determinations in microtiter plates with 96 wells (Half Area Plates, Costar No 3696), measuring the change in absorption owing to the formation of the reaction product at the wavelength specified hereinafter in a Multiskan Ascent Elisa Reader (Lab Systems, Finland). In order to measure the GPa enzymic activity in the reverse direction, the general method of Engers et al. (Engers H D, Shechosky S, Madsen N B, Can J Biochem 1970 July; 48(7):746-754) was used to measure the conversion of glucose 1-phosphate into glycogen and inorganic phosphate, with the following modifications: human glycogen phosphorylase a (for example with 0.76 mg of protein/ml (Aventis Pharma Deutschland GmbH), dissolved in buffer solution E (25 mM β-glycerophosphate, pH 7.0, 1 mM EDTA and 1 mM dithiothreitol) was diluted with buffer T (50 mM hepes, pH 7.0, 100 mM KCl, 2.5 mM EDTA, 2.5 mM MgCl26H2O) and addition of 5 mg/ml glycogen to a concentration of 10 μg of protein/ml. […] The baseline glycogen phosphorylase a activity in the absence of test substance was determined by adding 10 μl of buffer solution T (0.1% DMSO). The mixture was incubated at room temperature for 40 minutes, and the liberated […] was measured by the general method of Drueckes et al. (Drueckes P, Schinzel R, Palm D, Anal Biochem 1995 Sep. 1; 230(1):173-177) with the following modifications: 50 μl of a stop solution of 7.3 mM ammonium molybdate, 10.9 mM zinc acetate, 3.6% ascorbic acid, 0.9% SDS are added to 50 μl of the enzyme mixture. After incubation at 45° C. for 60 minutes, the absorption at 820 nm was measured. […]

The mark [1] stands for this setting: 10 μM test substance, GPa activity measured in the reverse direction (liberation of inorganic phosphate), duplicate determinations.

On to `COC(=O)/C=C/c1ccc(NC(=O)Oc2ccc(Cl)cc2)cc1NC(=O)NC(=O)c1cc(F)c(F)cc1Cl` [Example 110, Methyl (E)-3-[2-[3-(2-chloro-4,5-difluorobenzoyl)ureido]-4-(4-chloro-phenoxycarbonylamino)phenyl]acrylate], for which the inhibition at 10 µM was determined as 73%.
With `COC(=O)Nc1ccc(C(=O)O)cc1NC(=O)NC(=O)c1ccc(F)cc1Cl` [Example 3, 3-[3-(2-Chloro-4-fluorobenzoyl)ureido]-4-methoxycarbonylaminobenzoic acid], the inhibition at 10 µM under setting [1] amounted to 53%.
On the same count and under the same terms, for `COc1cc2c(=O)[nH]c(=O)[nH]c2cc1NC(=O)NC(=O)c1cc(F)c(F)cc1Cl` [Example 132, 1-(2-Chloro-4,5-difluorobenzoyl)-3-(6-methoxy-2,4-dioxo-1,2,3,4-tetrahydro-quinazolin-7-yl)urea] the value was 97%.

As usually defined, the inhibition is the drop in the measured response relative to a control, in per cent.
